Results from patent US10689378B2, “Triazolopyridine compounds and uses thereof” (Novartis AG, priority 2016, dated 2020).
Where two headings read alike, the source gives them in different places.

Experiments:
[1] = molecular target: T1, EED (1-441)-His protein (Homo sapiens, UniProt O75530); assay: EED-H3K27Me3 peptide competition binding assay by AlphaScreen
T1 construct: 30 nM EED (1-441)-His protein
Method: EED-H3K27Me3 Peptide Competition Binding Assay by AlphaScreen (α-Screen)
To assess the compounds' potency in the EED-H3K27Me3 competition binding assay, compounds were serially diluted 3-fold in DMSO to obtain a total of twelve concentrations. Then compounds at each concentration (75 nL of each) were transferred by Mosquito into a 384-well Perkin Elmer ProxiPlate 384 plus plates. 8 uL of solutions containing 30 nM EED (1-441)-His protein and 15 nM biotin-H3K27Me3 (19-33) peptide in the buffer (25 mM HEPES, pH 8, 0.02% Tween-20, 0.5% BSA) were added to the wells and then incubated with compound for 20 min. AlphaScreen detection beads mix was prepared immediately before use by mixing nickel chelate acceptor beads and streptavidin donor beads in a 1:1 ratio (Perkin Elmer, Product No. 6760619C/M/R) into the buffer described above. Then 4 μL of detection beads mix was added to the plate and incubate in the dark at the rt for 1 h. The final concentration of donor and acceptor beads was 10 μg/mL for each. Plates were read on EnVision (PerkinElmer) using the AlphaScreen setting adapted for optimal signal detection with a 615 nm filter, after sample excitation at 680 nm. The emission signal at 615 nm was used to quantify compounds inhibition. AlphaScreen signals were normalized based on the reading coming from the positive (maximum signal control) and negative controls (minimum signal control) to give percentage of activities left. The data were then fit to a dose response equation using the program Helios (Novartis) to get the IC50 values. Helios is a Novartis in-house assay data analysis software using the methods described by Normolle, D. P., Statistics in Medicine, 12:2025-2042 (1993); Formenko, I. et al, Computer Methods and Programs in Biomedicine, 82, 31-37 (2006); Sebaugh, J. L., Pharmaceutical Statistics, 10:128-134 (2011); Kelly, C. et al., Biometrics, 46(4):1071-1085 (1990); and Kahm, M. et al., Journal of Statistical Software, 33 (7): (2010) (grofit: Fitting Biological Growth Curves with R, pages 1-21, available at http://www.jstatsoft.org/).

[2] = test system: H3K27 methylation in G401 cell; assay: ELISA (H3K27 methylation) assay in G401 cells; type: cell-based, human; details: Homo sapiens
Method: Compounds of the present invention were assessed for their ability to inhibit PRC2 activity in a pentameric complex of EZH2, SUZ12, EED, Rbap48 and AEBP in biochemical assays. The ability of compounds of the present invention to inhibit cellular activity of PRC2 was assessed by analysing histone H3 lysine 27 methylation in human cell lines. The ability of compounds of the present invention to inhibit cancers was derived from their ability to modulate activity in human cancer cell lines bearing specific dependence to PRC2 activity to maintain cancerous growth.
ELISA (H3K27 Methylation) Assay
Representative compounds of the present invention were serially and separately diluted 3-fold in DMSO to obtain a total of eight or twelve concentrations. Then the compounds were added to G401 cell cultured in 384-well plate at 1:500 dilution to obtain the highest concentration of 20 μM. The cells were further cultured for 48 h before ELISA procedure.
Histone extraction: Cells, in 384-well plate, were washed with PBS (10×PBS buffer (80 g NaCl (Sigma, S3014), 2 g KCl (Sigma, 60128), 14.4 g Na2HPO4 (Sigma, S5136), 2.4 g KH2PO4 (Sigma, P9791) to 1 L water, pH to 7.4) and lysed with the addition of lysis buffer (0.4N HCl; 45 μL per well). The plate was gently agitated at 4° C. for 30 min. The cell lysate was neutralized with neutralization buffer (0.5 M sodium phosphate dibasic, pH 12.5, 1 mM DTT; 36 μL per well). The plate was agitated to ensure the lysates were well mixed prior to the ELISA protocol.
ELISA protocol: Cell lysates were transferred to the wells of a 384-well plate and the final volume was adjusted to 50 μL per well with PBS. The plate was sealed, centrifuged at 2,000 rpm for 2 min and incubated at 4° C. for about 16 h. The plate was washed with TBST buffer (1×TBS (10×TBS: 24.2 g Tris (Sigma, T6066), 80 g NaCl (Sigma, S3014) to 1 L of water and adjust pH to 7.6 with HCl) with 0.1% Tween-20). Blocking buffer (TBST, 5% BSA; 50 μL per well) was added and the plate was incubated for 1 h at rt. The blocking buffer was removed and primary antibody was added (30 μL per well). The following dilutions were performed with blocking buffer: for anti-H3K27me3 antibody (Cell Signaling Technology, #9733), dilution was 1:1000; for anti-H3K27me2 antibody (Cell Signaling Technology, #9288), dilution was 1:100; for anti-H3 antibody (Abcam, Cat #24834), dilution was 1:1000. The primary antibody was incubated in the plate at rt for 1 h. The wells were washed with TBST and incubated with secondary antibody for 1 h at rt. For secondary antibodies, the following dilutions were carried out with blocking buffer: anti-rabbit antibody (Jackson ImmunoResearch, #111-035-003), dilution was 1:2000; and anti-mouse antibody (Cell signaling technology, #7076), dilution was 1:1000. After 1 h of incubation at rt, the wells were washed with TBST. ECL substrate (Pierce, #34080) was added at 30 μL per well and the plates were centrifuged at 2,000 rpm for 2 min. The signal was read using a PerkinElmer Envision Reader. The H3K27 methylation readouts were normalized using H3 signal and then percentage inhibition was calculated against the samples treated with DMSO. The data were then fit to a dose response curve using the program Helios to get the IC50 values of the test compound.

[3] = read-out: (a) IC50, EED Alphascreen binding Qualified
[4] = G-401, read-out: (c) IC50, ELISA Qualified
[5] = EED-H3K27Me3 peptide competition, AlphaScreen, read-out: (a) IC50 EED Alphascreen binding Qualified
[6] = G-401, H3K27 methylation ELISA, read-out: (c) IC50 ELISA Qualified
[7] = read-out: (a) IC50 EED Alphascreen binding Qualified
[8] = G-401, read-out: (c) IC50 ELISA Qualified

T1 sequence (O75530 whole entry): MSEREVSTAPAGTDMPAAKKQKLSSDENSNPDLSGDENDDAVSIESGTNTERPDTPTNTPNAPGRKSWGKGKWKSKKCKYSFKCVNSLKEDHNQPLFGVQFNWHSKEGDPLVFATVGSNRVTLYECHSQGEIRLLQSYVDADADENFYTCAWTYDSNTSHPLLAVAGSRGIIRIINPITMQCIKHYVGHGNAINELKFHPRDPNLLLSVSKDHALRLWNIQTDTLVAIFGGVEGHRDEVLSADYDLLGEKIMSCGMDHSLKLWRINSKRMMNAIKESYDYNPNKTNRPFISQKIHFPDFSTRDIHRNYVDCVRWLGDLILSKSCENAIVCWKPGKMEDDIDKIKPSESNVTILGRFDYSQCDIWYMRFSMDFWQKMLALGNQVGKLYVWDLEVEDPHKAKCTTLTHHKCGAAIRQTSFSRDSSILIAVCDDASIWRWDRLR

| IC50 [1, 3] | IC50 [2, 4] | Compound | other results |
| --- | --- | --- | --- |
| 164 nM | 140 nM | COc1ccc(F)c(CNc2ccc(-c3ccc(CN(C)C)cc3)c3nncn23)c1 [Example 49, 8-(4-((dimethylamino)methyl)phenyl)-N-(2-fluoro-5-methoxybenzyl)-[1,2,4] triazolo[4,3-a]pyridin-5-amine] |  |
| 344 nM | 733 nM | COc1c(F)cccc1CNc1ccc(-c2ccncc2)c2nncn12 [Example 137, N-(3-fluoro-2-methoxybenzyl)-8-(pyridin-4-yl)-[1,2,4]triazolo[4,3-a]pyridin-5-amine] |  |
| 31.6 nM | 168 nM | COc1cc(-c2ccc(NCc3ccccc3OC)n3cnnc23)ccn1 [Example 59, N-(2-methoxybenzyl)-8-(2-methoxypyridin-4-yl)-[1,2,4] triazolo[4,3-a]pyridin-5-amine] |  |
| 162 nM | 400 nM | COc1cc(F)ccc1CNc1ccc(-c2cccnc2)c2nncn12 [Example 93, N-(4-fluoro-2-methoxybenzyl)-8-(pyridin-3-yl)-[1,2,4]triazolo[4,3-a]pyridin-5-amine] |  |
| 320 nM | 4240 nM | COc1ccccc1CNc1ccc(-c2ccc(-c3nn[nH]n3)cc2)c2nncn12 [Example 74, 8-(4-(2H-tetrazol-5-yl)phenyl)-N-(2-methoxybenzyl)-[1,2,4]triazolo[4,3-a] pyridin-5-amine] |  |
| 118 nM | 761 nM | COc1cccc(F)c1CNc1ccc(-c2cnc(N(C)C)nc2)c2nncn12 [Example 141, 8-(2-(dimethylamino)pyrimidin-5-yl)-N-(2-fluoro-6-methoxybenzyl)-[1,2,4] triazolo[4,3-a]pyridin-5-amine] |  |
| 1270 nM | 986 nM | COc1c(F)cccc1CNc1ccc(-c2cccnc2)c2nncn12 [Example 144, N-(3-fluoro-2-methoxybenzyl)-8-(pyridin-3-yl)-[1,2,4]triazolo[4,3-a]pyridin-5-amine] |  |

Further lines, the molecule ahead of its results:

| Compound | IC50 [1, 3] | IC50 [2, 4] | other results |
| --- | --- | --- | --- |
| COc1cc(F)ccc1CNc1ccc(-c2cnc(N3CCN(C(C)C)CC3)c(Cl)c2)c2nncn12 [Example 97, 8-(5-chloro-6-(4-isopropylpiperazin-1-yl)pyridin-3-yl)-N-(4-fluoro-2-methoxybenzyl)-[1,2,4]triazolo[4,3-a] pyridin-5-amine] | 105 nM | 776 nM |  |
| COc1cc(F)ccc1CNc1ccc(-c2ccc(NS(C)(=O)=O)c(F)c2)c2nncn12 [Example 129, N-(2-fluoro-4-(5-((4-fluoro-2-methoxybenzyl)amino)-[1,2,4]triazolo[4,3-a]pyridin-8-yl)phenyl)methane sulfonamide] | 381 nM | 854 nM |  |
| COc1ccccc1CNc1ccc(-c2ccc(CN3CCCC3)cc2)c2nncn12 [Example 60, N-(2-methoxybenzyl)-8-(4-(pyrrolidin-1-ylmethyl)phenyl)-[1,2,4]triazolo[4,3-a] pyridin-5-amine] | 40.2 nM | 56.5 nM |  |
| CCc1ccncc1-c1ccc(NCc2c(F)cc(F)cc2OC)n2cnnc12 [Example 307, N-(2,4-difluoro-6-methoxybenzyl)-8-(4-ethylpyridin-3-yl)-[1,2,4]triazolo[4,3-a] pyridin-5-amine] |  |  | IC50 [1, 5]: 205 nM; IC50 [2, 6]: 226 nM |
| CN(C)Cc1ccc(-c2ccc(NCc3ccccc3)n3cnnc23)cc1 [Example 17, N-benzyl-8-(4-((dimethylamino)methyl)phenyl)-[1,2,4]triazolo[4,3-a] pyridin-5-amine] | 234 nM | 249 nM |  |
| COc1cccc(F)c1CNc1ccc(-c2c(C)ccnc2C)c2nncn12 [Example 346, 8-(2,4-dimethylpyridin-3-yl)-N-(2-fluoro-6-methoxybenzyl)-[1,2,4]triazolo[4,3-a] pyridin-5-amine] |  |  | IC50 [1, 7]: 142 nM; IC50 [2, 8]: 260 nM |
| COc1cc(F)ccc1CNc1ccc(-c2ccc(C(=O)N3CCCC3)cc2)c2nncn12 [Example 96, (4-(5-((4-fluoro-2-methoxy benzyl)amino)-[1,2,4]triazolo[4,3-a]pyridin-8-yl)phenyl)(pyrrolidin-1-yl) methanone] | 105 nM | 253 nM |  |
| COc1cc(F)ccc1CNc1ccc(-c2cnc(N3CCN(C(C)C)CC3)c(C(F)(F)F)c2)c2nncn12 [Example 90, N-(4-fluoro-2-methoxybenzyl)-8-(6-(4-isopropylpiperazin-1-yl)-5-(trifluoromethyl)pyridin-3-yl)-[1,2,4]triazolo[4,3-a] pyridin-5-amine] | 410 nM | 2130 nM |  |
| COc1cccc(F)c1CNc1ccc(-c2ccccc2C)c2nncn12 [Example 211, N-(2-fluoro-6-methoxybenzyl)-8-(o-tolyl)-[1,2,4] triazolo[4,3-a]pyridin-5-amine] |  |  | IC50 [1, 5]: 103 nM; IC50 [2, 6]: 151 nM |
| COc1cccc(F)c1CNc1ccc(-c2cn(C)c(C)n2)c2nncn12 [Example 365, 8-(1,2-dimethyl-1H-imidazol-4-yl)-N-(2-fluoro-6-methoxybenzyl)-[1,2,4] triazolo[4,3-a]pyridin-5-amine] |  |  | IC50 [1, 7]: 197 nM; IC50 [2, 8]: 278 nM |
| COc1ccccc1CNc1ccc(-c2cnc(N3CCN(C)CC3)c(Cl)c2)c2nncn12 [Example 75, 8-(5-chloro-6-(4-methylpiperazin-1-yl)pyridin-3-yl)-N-(2-methoxybenzyl)-[1,2,4] triazolo[4,3-a]pyridin-5-amine] | 132 nM | 488 nM |  |
| COc1cc(F)ccc1CNc1ccc(-c2ccc(S(=O)(=O)C3CCN(C)CC3)cc2)c2nncn12 [Example 153, N-(4-fluoro-2-methoxybenzyl)-8-(4-((1-methylpiperidin-4-yl)sulfonyl)phenyl)-[1,2,4]triazolo[4,3-a] pyridin-5-amine] | 168 nM | 223 nM |  |
| COc1cc(F)cc(F)c1CNc1ccc(-c2cnc(OC3CC3)nc2C)c2nncn12 [Example 344, 8-(2-cyclopropoxy-4-methylpyrimidin-5-yl)-N-(2,4-difluoro-6-methoxybenzyl)-[1,2,4]triazolo[4,3-a]pyridin-5-amine] |  |  | IC50 [1, 5]: 25.5 nM |
